According to patent US20250179047A1, “5-[7-(3,4-DIHYDRO-1H-ISOQUINOLINE-2-CARBONYL)-1,2,3,4 TETRAHYDROISOQUINOLIN-6-YL]-1H-PYRROLE-3-CARBOXAMIDE DERIVATIVES, PHARMACEUTICAL COMPOSITIONS CONTAINING THEM AND THEIR USES AS PRO-APOPTOTIC AGENTS” (LES LABORATOIRES SERVIER, priority 2022, published 2025):

Tests used:
BCL2 WT = BCL2 WT (Homo sapiens (Human), UniProt P10415); experiment: TR-FRET competitive binding assay, BCL2 WT; conditions: Ki determined from IC50, read-out: TR_FRET EKI_Bcl2 WT
In short: (§1)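 Ki derived from IC50 (11-point dilution, 520/495 nm emission ratio) for displacing a fluorescein-labelled PUMA peptide (2 or 20 nM). Target was 0.5 nM E. coli-expressed Halo-tagged BCL2 (1-207) or BCLXL (2-196), terbium-labelled on Halo. Incubation 2 h at 23°C in pH 7.5 Hepes with 150 mM NaCl and 5% DMSO.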

KMS-12-PE Bcl-2 G101V = experiment: In vitro cytotoxicity CellTiter-Glo 48 h, KMS-12-PE Bcl-2 G101V; type: cell-based; conditions: for Ratio (G101V/WT): C50 KMS-12-PE Bcl-2 G101V over C50 KMS-12-PE Bcl-2 WT; for IC50: Homo sapiens, KMS-12-PE, 48 h, CellTiter-Glo, C50 = concentration needed to reach 50% of the cellular viability
In short: (§2)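 CTG luminescence read-out; C50 = concentration reaching 50% cellular viability. Cells: KMS-12-PE expressing Bcl-2 WT or G101V (lentiviral, TagRFP-sorted). 11-pt curve, 48 h, 37 °C/5% CO2.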

BCLXL WT = BCLXL WT (Homo sapiens (Human), UniProt Q07817); experiment: TR-FRET competitive binding assay, BCLXL WT; conditions: for Ki: BCLXL WT, Ki determined from IC50, read-out: TR_FRET EKI BclxL; for TR_FRET EKI BCLxL/WT selectivty ratio: ratio Ki BCLxL / Ki BCL2 WT
BCLXL WT, sequence (Q07817 other isoform, or with tags, fused parts or gaps): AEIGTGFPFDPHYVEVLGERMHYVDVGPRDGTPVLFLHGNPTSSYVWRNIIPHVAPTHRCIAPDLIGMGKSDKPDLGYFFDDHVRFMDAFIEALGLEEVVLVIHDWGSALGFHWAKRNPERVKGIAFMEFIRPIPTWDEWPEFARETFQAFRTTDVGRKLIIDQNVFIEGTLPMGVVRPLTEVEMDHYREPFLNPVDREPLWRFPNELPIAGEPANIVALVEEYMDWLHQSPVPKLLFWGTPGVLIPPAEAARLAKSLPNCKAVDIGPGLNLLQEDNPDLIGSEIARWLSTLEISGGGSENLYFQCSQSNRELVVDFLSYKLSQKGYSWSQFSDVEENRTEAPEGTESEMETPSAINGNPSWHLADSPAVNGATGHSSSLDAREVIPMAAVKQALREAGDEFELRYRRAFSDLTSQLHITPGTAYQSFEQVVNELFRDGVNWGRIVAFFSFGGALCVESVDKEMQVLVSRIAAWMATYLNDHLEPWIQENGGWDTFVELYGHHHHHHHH
In short: as §1

BCL2 D111A = BCL2 D111A (Homo sapiens, UniProt P10415, D111A); experiment: TR-FRET competitive binding assay, BCL2 D111A; conditions: Ki determined from IC50, read-out: TR_FRET EKI_Bcl2 D111A
In short: as §1

BCL2 G101V [1] = target: BCL2 G101V (Homo sapiens, UniProt P10415, G101V); experiment: TR-FRET competitive binding assay, BCL2 G101V; conditions: BCL2 G101V; Ki determined from IC50; read-out: TR_FRET EKI_Bcl2 G101V
In short: as §1

BCL2 G101V [2] = experiment: TR-FRET competitive binding assay, BCL2 G101V; set-up: species or system human; conditions: ratio Ki BCL2 G101V / Ki BCL2 WT
In short: as §1

BCL2 F104I = BCL2 F104I (Homo sapiens, UniProt P10415, F104I); experiment: TR-FRET competitive binding assay, BCL2 F104I; conditions: Ki determined from IC50, read-out: TR_FRET EKI_Bcl2 F104I
In short: as §1

BCL2 D103Y = BCL2 D103Y (Homo sapiens, UniProt P10415, D103Y); experiment: TR-FRET competitive binding assay, BCL2 D103Y; conditions: Ki determined from IC50, read-out: TR_FRET EKI_Bcl2 D103Y
In short: as §1

KMS-12-PE Bcl-2 WT = experiment: In vitro cytotoxicity CellTiter-Glo 48 h, KMS-12-PE Bcl-2 WT; type: cell-based; conditions: Homo sapiens, KMS-12-PE, C50 = concentration needed to reach 50% of the cellular viability
In short: as §2

| Ki (BCL2 WT) | Ki (BCLXL WT) | TR_FRET EKI BCLxL/WT selectivty ratio (BCLXL WT) | Ki (BCL2 D111A) | Ki (BCL2 G101V [1]) | TR_FRET EKI G101V/WT selectivty ratio (BCL2 G101V [2]) | Ki (BCL2 F104I) | Ki (BCL2 D103Y) | SMILES | Ratio (G101V/WT) (KMS-12-PE Bcl-2 G101V) | IC50 (KMS-12-PE Bcl-2 G101V) | IC50 (KMS-12-PE Bcl-2 WT) |
| --- | --- | --- | --- | --- | --- | --- | --- | --- | --- | --- | --- |
| 0.02 nM | 1.1 nM | 52.4 | 0.09 nM | 0.1 nM | 2.8 | 0.04 nM | 0.07 nM | Cc1c(N(C(=O)c2cc(-c3cc4c(cc3C(=O)N3Cc5ccccc5C[C@H]3CCN3CCCCC3)CN(C(=O)Cc3ccc(OCCN5CCOCC5)cc3F)CC4)n(C)c2C)c2ccc(O)cc2)cc(C#N)n1C [Example 74, N-(5-cyano-1,2-dimethyl-1H-pyrrol-3-yl)-5-[2-(2-{2-fluoro-4-[2-(morpholin-4-yl)ethoxy]phenyl}acetyl)-7-[(3S)-3-[2-(piperidin-1-yl)ethyl]-1,2,3,4-tetrahydroisoquinoline-2-carbonyl]-1,2,3,4-tetrahydroisoquinolin-6-yl]-N-(4-hydroxyphenyl)-1,2-dimethyl-1H-pyrrole-3-carboxamide] | 2.36 | 0.0885 µM | 0.0375 µM |
| 0.19 nM | 5.3 nM | 27.9 | 0.4 nM | 0.6 nM | 2.9 | 0.52 nM | 0.46 nM | COc1ccc(N(C(=O)c2cc(-c3cc4c(cc3C(=O)N3Cc5ccccc5C[C@H]3C)CN(C(=O)Cc3ccc(OCCN5CCOCC5)cc3)CC4)n(C)c2C)c2ccc(O)cc2)cc1C#N [Example 81, N-(3-cyano-4-methoxyphenyl)-N-(4-hydroxyphenyl)-1,2-dimethyl-5-(7-{[(3R)-3-methyl-3,4-dihydro-1H-isoquinolin-2-yl]carbonyl}-2-(2-{4-[2-(morpholin-4-yl)ethoxy]phenyl}acetyl)-3,4-dihydro-1H-isoquinolin-6-yl)pyrrole-3-carboxamide] | 5.6429 | 0.0395 µM | 0.007 µM |
| 0.13 nM | 1.6 nM | 12.3 | 0.23 nM | 0.5 nM | 3.9 | 0.37 nM | 0.42 nM | Cc1c(N(C(=O)c2cc(-c3cc4c(cc3C(=O)N3Cc5ccccc5C[C@H]3CN3CCC(F)CC3)CN(C(=O)Cc3ccc(OCCN5CCOCC5)cc3F)CC4)n(C)c2C)c2ccc(O)cc2)cc(C#N)n1C [Example 86, N-(5-cyano-1,2-dimethyl-1H-pyrrol-3-yl)-5-[2-(2-{2-fluoro-4-[2-(morpholin-4-yl)ethoxy]phenyl}acetyl)-7-[(3S)-3-[(4-fluoropiperidin-1-yl)methyl]-1,2,3,4-tetrahydroisoquinoline-2-carbonyl]-1,2,3,4-tetrahydroisoquinolin-6-yl]-N-(4-hydroxyphenyl)-1,2-dimethyl-1H-pyrrole-3-carboxamide] | 5.21 | 0.0249 µM | 0.0048 µM |
| 0.07 nM | 1.9 nM | 29.2 | 0.26 nM | 0.3 nM | 4.3 | 0.43 nM | 0.18 nM | Cc1c(N(C(=O)c2cc(-c3cc4c(cc3C(=O)N3Cc5ccccc5C[C@H]3CN3CCCCC3)CN(C(=O)Cc3ccc(O[C@H]5CCN(CCF)C5)cc3F)CC4)n(C)c2C)c2ccc(O)cc2)cc(C#N)n1C [Example 89, N-(5-cyano-1,2-dimethylpyrrol-3-yl)-5-{2-[2-(2-fluoro-4-{[(3S)-1-(2-fluoroethyl)pyrrolidin-3-yl]oxy}phenyl)acetyl]-7-{[(3S)-3-(piperidin-1-ylmethyl)-3,4-dihydro-1H-isoquinolin-2-yl]carbonyl}-3,4-dihydro-1H-isoquinolin-6-yl}-N-(4-hydroxyphenyl)-1,2-dimethylpyrrole-3-carboxamide] | 5.17 | 0.0358 µM | 0.0069 µM |
| 0.06 nM | 2.4 nM | 37.5 | 0.2 nM | 0.4 nM | 5.6 | 0.2 nM | 0.2 nM | Cc1c(N(C(=O)c2cc(-c3cc4c(cc3C(=O)N3Cc5ccccc5C[C@H]3CN3CCCCCC3)CN(C(=O)Cc3ccc(OCCN5CCOCC5)cc3F)CC4)n(C)c2C)c2ccc(O)cc2)cc(C#N)n1C [Example 96, 5-{7-[(3S)-3-[(azepan-1-yl)methyl]-1,2,3,4-tetrahydroisoquinoline-2-carbonyl]-2-(2-{2-fluoro-4-[2-(morpholin-4-yl)ethoxy]phenyl}acetyl)-1,2,3,4-tetrahydroisoquinolin-6-yl}-N-(5-cyano-1,2-dimethyl-1H-pyrrol-3-yl)-N-(4-hydroxyphenyl)-1,2-dimethyl-1H-pyrrole-3-carboxamide] | 5.15 | 0.0291 µM | 0.0056 µM |
| 0.05 nM | 1.9 nM | 41.3 | 0.14 nM | 0.2 nM | 4.3 | 0.16 nM | 0.18 nM | Cc1c(N(C(=O)c2cc(-c3cc4c(cc3C(=O)N3Cc5ccccc5C[C@H]3CN3CCCCC3)CN(C(=O)Cc3c(F)cc(OCCN5CCOCC5)cc3F)CC4)n(C)c2C)c2ccc(O)cc2)cc(C#N)n1C [Example 97, N-(5-cyano-1,2-dimethylpyrrol-3-yl)-5-[2-(2-{2,6-difluoro-4-[2-(morpholin-4-yl)ethoxy]phenyl}acetyl)-7-{[(3S)-3-(piperidin-1-ylmethyl)-3,4-dihydro-1H-isoquinolin-2-yl]carbonyl}-3,4-dihydro-1H-isoquinolin-6-yl]-N-(4-hydroxyphenyl)-1,2-dimethylpyrrole-3-carboxamide] | 4.68 | 0.0158 µM | 0.0033 µM |
| 0.07 nM | 4.7 nM | 66.2 | 0.25 nM | 0.4 nM | 4.9 | 0.6 nM | 0.24 nM | Cc1c(N(C(=O)c2cc(-c3cc4c(cc3C(=O)N3Cc5ccccc5C[C@H]3CN3CCCCC3)CN(C(=O)Cc3ccc(OCCN5C[C@@H](C)O[C@@H](C)C5)cc3)CC4)n(C)c2C)c2ccc(O)cc2)cc(C#N)n1C [Example 98, N-(5-cyano-1,2-dimethylpyrrol-3-yl)-5-{2-[2-(4-{2-[cis-2,6-dimethylmorpholin-4-yl]ethoxy}phenyl)acetyl]-7-{[(3S)-3-(piperidin-1-ylmethyl)-3,4-dihydro-1H-isoquinolin-2-yl]carbonyl}-3,4-dihydro-1H-isoquinolin-6-yl}-N-(4-hydroxyphenyl)-1,2-dimethylpyrrole-3-carboxamide] | 4.6 | 0.0401 µM | 0.0087 µM |
| 0.06 nM | 2.8 nM | 49.1 | 0.24 nM | 0.4 nM | 6.5 | 0.73 nM | 0.21 nM | Cc1c(N(C(=O)c2cc(-c3cc4c(cc3C(=O)N3Cc5ccccc5C[C@H]3CN3CCCCC3)CN(C(=O)Cc3ccc(OCCN(C)C5CC5)cc3)CC4)n(C)c2C)c2ccc(O)cc2)cc(C#N)n1C [Example 102, N-(5-cyano-1,2-dimethyl-1H-pyrrol-3-yl)-5-{2-[2-(4-{2-[cyclopropyl(methyl)amino]ethoxy}phenyl)acetyl]-7-[(3S)-3-[(piperidin-1-yl)methyl]-1,2,3,4-tetrahydroisoquinoline-2-carbonyl]-1,2,3,4-tetrahydroisoquinolin-6-yl}-N-(4-hydroxyphenyl)-1,2-dimethyl-1H-pyrrole-3-carboxamide] | 6.03 | 0.0424 µM | 0.0075 µM |
| 0.05 nM | 1.6 nM | 32.7 | 0.12 nM | 0.2 nM | 4.3 | 0.22 nM | 0.11 nM | Cc1c(N(C(=O)c2cc(-c3cc4c(cc3C(=O)N3Cc5ccccc5C[C@H]3CN3CCCCC3)CN(C(=O)Cc3ccc(OCCN(C)C5COC5)cc3F)CC4)n(C)c2C)c2ccc(O)cc2)cc(C#N)n1C [Example 105, N-(5-cyano-1,2-dimethyl-1H-pyrrol-3-yl)-5-{2-[2-(2-fluoro-4-{2-[methyl(oxetan-3-yl)amino]ethoxy}phenyl)acetyl]-7-[(3S)-3-[(piperidin-1-yl)methyl]-1,2,3,4-tetrahydroisoquinoline-2-carbonyl]-1,2,3,4-tetrahydroisoquinolin-6-yl}-N-(4-hydroxyphenyl)-1,2-dimethyl-1H-pyrrole-3-carboxamide] | 5.28 | 0.0285 µM | 0.0054 µM |
